Holding throughout (set-up): scale not given: the % may be the effect or the level left
The target in assay [1] is Serine/threonine-protein kinase TAO3 (Homo sapiens) (UniProt Q9H2K8). In words: Inhibition of human TAO3 assessed as enzyme activity at 1 uM relative to control.
In assay [2] the target is Serine/threonine-protein kinase pim-2 (Homo sapiens) (UniProt Q9P1W9). In words: Inhibition of human Pim-2 assessed as enzyme activity at 1 uM relative to control.
Assay [3] concerns the target Rho-associated protein kinase 2 (Homo sapiens) (UniProt O75116). In words: Inhibition of human ROCK-2 assessed as enzyme activity at 1 uM relative to control.
The target of assay [4] is Tyrosine-protein kinase Tec (Homo sapiens) (UniProt P42680). In words: Inhibition of human activated TEC assessed as enzyme activity at 1 uM relative to control.
The target in assay [5] is MAP kinase-activated protein kinase 5 (Homo sapiens) (UniProt Q8IW41). In words: Inhibition of human MAPKAP-K5 assessed as enzyme activity at 1 uM relative to control.
In assay [6] the target is Protein kinase C beta type (Homo sapiens) (UniProt P05771). In words: Inhibition of human PKCbeta1 assessed as enzyme activity at 1 uM relative to control.
Assay [7] deals with Tyrosine-protein kinase Yes (Homo sapiens) (UniProt P07947). The assay can be described thus: Inhibition of human Yes assessed as enzyme activity at 1 uM relative to control.
The target of assay [8] is SRSF protein kinase 2 (Homo sapiens) (UniProt P78362). In words: Inhibition of human SRPK2 assessed as enzyme activity at 1 uM relative to control.
Sequence of SRSF protein kinase 2 (Homo sapiens) (P78362 whole entry, looked up): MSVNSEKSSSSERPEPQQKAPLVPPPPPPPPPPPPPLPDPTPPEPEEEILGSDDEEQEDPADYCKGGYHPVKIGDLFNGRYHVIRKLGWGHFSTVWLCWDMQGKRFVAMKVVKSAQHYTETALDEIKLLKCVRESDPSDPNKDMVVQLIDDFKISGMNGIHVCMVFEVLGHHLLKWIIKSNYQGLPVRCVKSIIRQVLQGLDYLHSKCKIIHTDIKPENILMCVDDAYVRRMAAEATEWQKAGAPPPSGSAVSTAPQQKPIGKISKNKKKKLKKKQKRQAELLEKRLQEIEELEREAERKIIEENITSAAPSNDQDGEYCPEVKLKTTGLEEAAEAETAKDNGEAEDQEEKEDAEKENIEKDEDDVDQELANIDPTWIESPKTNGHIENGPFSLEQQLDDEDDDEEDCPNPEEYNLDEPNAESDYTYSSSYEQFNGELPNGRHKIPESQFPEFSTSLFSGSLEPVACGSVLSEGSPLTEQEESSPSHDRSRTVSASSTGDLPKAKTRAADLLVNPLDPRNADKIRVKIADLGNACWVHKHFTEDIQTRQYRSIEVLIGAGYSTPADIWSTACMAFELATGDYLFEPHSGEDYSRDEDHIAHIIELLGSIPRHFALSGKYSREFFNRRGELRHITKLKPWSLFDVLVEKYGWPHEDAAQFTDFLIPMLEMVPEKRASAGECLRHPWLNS

Sequence of Serine/threonine-protein kinase pim-2 (Homo sapiens) (Q9P1W9 whole entry, looked up): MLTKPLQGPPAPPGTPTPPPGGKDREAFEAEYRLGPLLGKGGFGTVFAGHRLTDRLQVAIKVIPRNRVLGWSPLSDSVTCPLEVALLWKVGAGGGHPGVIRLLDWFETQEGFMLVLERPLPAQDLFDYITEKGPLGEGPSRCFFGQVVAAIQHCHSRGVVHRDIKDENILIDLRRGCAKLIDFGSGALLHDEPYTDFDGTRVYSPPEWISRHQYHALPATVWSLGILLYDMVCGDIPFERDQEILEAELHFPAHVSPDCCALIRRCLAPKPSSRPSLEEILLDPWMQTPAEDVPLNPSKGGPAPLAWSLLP
Sequence of Serine/threonine-protein kinase TAO3 (Homo sapiens) (Q9H2K8 whole entry): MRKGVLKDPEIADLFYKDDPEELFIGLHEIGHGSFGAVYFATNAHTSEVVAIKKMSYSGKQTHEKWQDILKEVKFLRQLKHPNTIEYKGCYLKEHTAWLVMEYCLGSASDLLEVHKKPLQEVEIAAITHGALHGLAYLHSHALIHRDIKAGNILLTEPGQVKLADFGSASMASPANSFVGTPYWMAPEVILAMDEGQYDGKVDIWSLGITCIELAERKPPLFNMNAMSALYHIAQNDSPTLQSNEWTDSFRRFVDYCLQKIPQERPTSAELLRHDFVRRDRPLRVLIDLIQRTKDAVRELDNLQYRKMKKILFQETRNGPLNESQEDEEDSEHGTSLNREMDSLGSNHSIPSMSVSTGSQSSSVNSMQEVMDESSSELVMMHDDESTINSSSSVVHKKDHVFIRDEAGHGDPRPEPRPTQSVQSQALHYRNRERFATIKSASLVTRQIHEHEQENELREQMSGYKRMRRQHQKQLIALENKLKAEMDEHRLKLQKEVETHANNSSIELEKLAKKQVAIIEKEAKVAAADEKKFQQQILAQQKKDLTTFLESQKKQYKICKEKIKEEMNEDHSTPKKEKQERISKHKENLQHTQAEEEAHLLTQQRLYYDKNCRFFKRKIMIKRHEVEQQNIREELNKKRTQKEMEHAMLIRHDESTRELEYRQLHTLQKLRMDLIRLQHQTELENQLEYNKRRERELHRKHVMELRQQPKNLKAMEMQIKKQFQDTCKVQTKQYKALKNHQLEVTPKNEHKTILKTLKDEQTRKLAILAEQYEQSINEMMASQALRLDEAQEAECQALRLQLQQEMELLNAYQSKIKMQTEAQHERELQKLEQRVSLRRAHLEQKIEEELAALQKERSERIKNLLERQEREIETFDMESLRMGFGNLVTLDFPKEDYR
Sequence of Protein kinase C beta type (Homo sapiens) (P05771 2-671 limits assumed): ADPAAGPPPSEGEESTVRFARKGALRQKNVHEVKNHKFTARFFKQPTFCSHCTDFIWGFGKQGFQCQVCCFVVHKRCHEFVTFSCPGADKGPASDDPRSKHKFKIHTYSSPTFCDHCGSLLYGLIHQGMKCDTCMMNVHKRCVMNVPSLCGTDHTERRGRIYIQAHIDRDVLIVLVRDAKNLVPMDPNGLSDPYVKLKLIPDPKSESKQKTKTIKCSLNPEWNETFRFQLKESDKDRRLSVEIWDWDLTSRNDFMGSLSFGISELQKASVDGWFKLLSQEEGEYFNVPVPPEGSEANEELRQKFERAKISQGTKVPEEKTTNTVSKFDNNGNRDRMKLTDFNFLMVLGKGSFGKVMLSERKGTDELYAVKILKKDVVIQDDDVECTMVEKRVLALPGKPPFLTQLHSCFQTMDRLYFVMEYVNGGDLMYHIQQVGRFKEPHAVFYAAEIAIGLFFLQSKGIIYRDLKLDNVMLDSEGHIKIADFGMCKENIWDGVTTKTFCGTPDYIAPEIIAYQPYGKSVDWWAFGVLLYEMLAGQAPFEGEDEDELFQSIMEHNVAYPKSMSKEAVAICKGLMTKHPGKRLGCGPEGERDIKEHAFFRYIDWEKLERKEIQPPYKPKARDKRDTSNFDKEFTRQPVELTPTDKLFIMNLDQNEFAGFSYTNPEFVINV
Sequence of Rho-associated protein kinase 2 (Homo sapiens) (O75116 whole entry, looked up): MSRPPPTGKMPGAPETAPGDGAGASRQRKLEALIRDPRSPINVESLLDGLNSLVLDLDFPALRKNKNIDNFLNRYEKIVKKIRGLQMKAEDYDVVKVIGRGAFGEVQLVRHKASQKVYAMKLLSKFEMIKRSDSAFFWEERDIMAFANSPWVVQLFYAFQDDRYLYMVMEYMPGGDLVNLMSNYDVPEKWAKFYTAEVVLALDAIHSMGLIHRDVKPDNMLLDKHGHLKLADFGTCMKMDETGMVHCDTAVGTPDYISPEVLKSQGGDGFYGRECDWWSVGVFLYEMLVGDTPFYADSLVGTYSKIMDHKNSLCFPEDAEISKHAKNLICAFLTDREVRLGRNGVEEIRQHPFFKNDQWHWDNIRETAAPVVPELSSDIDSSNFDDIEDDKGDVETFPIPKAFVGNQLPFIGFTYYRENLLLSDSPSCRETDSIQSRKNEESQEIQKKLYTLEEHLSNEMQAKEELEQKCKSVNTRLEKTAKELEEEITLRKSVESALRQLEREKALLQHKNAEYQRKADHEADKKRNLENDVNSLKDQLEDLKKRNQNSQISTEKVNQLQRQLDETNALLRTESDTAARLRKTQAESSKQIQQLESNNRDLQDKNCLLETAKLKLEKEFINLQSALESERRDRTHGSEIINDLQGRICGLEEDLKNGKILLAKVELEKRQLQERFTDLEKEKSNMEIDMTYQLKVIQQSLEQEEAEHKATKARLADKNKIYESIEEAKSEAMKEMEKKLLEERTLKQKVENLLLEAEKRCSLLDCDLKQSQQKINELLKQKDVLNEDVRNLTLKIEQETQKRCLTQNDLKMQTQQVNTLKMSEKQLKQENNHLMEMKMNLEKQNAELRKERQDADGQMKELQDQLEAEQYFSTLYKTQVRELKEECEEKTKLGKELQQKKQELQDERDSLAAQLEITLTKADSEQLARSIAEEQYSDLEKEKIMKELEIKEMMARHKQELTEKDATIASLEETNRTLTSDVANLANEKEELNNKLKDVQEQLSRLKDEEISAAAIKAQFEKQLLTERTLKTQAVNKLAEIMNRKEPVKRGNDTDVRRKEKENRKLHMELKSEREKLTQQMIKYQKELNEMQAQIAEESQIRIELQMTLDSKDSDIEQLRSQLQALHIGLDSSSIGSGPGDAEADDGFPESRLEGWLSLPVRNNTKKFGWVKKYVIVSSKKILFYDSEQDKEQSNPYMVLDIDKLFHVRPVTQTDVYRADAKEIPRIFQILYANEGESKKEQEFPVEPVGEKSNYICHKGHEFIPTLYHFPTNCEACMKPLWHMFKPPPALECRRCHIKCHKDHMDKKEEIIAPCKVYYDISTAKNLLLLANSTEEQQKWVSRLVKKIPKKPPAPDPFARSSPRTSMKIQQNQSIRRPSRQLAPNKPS
Sequence of Tyrosine-protein kinase Yes (Homo sapiens) (P07947 2-543 limits assumed): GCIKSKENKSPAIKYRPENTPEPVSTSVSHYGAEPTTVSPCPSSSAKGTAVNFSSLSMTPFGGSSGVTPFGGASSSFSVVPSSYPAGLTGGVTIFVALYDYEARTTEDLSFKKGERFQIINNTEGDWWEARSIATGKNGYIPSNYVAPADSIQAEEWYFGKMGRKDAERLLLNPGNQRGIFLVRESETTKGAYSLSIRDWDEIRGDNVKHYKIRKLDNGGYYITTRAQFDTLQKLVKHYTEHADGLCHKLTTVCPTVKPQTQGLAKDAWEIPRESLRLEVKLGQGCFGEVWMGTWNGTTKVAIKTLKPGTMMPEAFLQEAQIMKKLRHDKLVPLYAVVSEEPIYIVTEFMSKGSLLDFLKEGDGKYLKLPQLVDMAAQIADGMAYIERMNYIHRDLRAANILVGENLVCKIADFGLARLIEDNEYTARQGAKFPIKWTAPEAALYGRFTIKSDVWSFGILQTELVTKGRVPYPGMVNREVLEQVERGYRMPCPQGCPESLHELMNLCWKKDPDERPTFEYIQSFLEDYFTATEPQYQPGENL
Sequence of MAP kinase-activated protein kinase 5 (Homo sapiens) (Q8IW41 whole entry): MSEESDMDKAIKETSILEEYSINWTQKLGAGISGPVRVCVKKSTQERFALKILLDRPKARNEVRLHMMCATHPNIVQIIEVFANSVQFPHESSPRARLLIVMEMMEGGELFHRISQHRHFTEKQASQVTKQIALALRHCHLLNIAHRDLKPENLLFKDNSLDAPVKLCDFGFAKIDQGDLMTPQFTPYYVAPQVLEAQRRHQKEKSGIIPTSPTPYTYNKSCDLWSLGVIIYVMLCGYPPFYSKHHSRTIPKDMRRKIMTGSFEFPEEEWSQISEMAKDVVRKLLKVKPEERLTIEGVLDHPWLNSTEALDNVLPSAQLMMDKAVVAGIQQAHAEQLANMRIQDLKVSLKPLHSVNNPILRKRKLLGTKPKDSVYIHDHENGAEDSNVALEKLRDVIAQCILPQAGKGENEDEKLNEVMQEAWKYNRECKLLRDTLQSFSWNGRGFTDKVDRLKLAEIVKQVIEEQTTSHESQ

Turning to `CCCS(=O)(=O)Nc1cccc(Nc2ccc3ncn(C)c(=O)c3c2)c1C#N`, the Activity was 100% in assay [1]; 108% in assay [2]; 114% in assay [3]; 102% in assay [4]; 104% in assay [5]; 87% in assay [6]. The results for the Activity in assay [7] and in assay [8] were 103% and 96.5%, respectively.

The values above are taken from ChEMBL document CHEMBL3232845 (Bioorg Med Chem Lett, 2014).
